Data published in US7271165B2, “Rifamycin analogs and uses thereof” (priority 2003, dated 2007).
Converted amounts (≈) assume the structure as drawn.

How the values were obtained:
[1] = test system: S. aureus; test: MIC assay, S. aureus; format: cell-based, Staphylococcus aureus
[2] = test system: E. faecalis; test: MIC assay, E. faecalis; format: cell-based, Enterococcus faecalis
[3] = test system: E coli; test: MIC assay, E coli; format: cell-based
[4] = test system: H. flu; format: cell-based, H. influenza; conditions: H. flu
[5] = test system: S. pneumo.; test: MIC assay, S. pneumo.; format: cell-based, Streptococcus pneumoniae

SMILES | MIC (μg/mL) S. aureus [1] [µg/mL] | MIC (μg/mL) E. faecalis [2] [µg/mL] | MIC (μg/mL) E coli [3] [µg/mL] | MIC (μg/mL) H. flu [4] [µg/mL] | MIC (μg/mL) S. pneumo. [5] [µg/mL]
COC1C=COC2(C)Oc3c(C)c(O)c4c(=O)c(c5oc6cc(N7CCC(NC(C)=O)CC7)cc(O)c6nc-5c4c3C2=O)NC(=O)C(C)=CC=CC(C)C(O)C(C)C(O)C(C)C(O)C1C (stereo not shown) [Compound 43, 25-O-deacetyl-3′-hydroxy-5′-[4-acetamide-1-piperidinyl]benzoxazinorifamycin] | 0.03 (≈ 33.4 nM) | 2 (≈ 2220 nM) | >8 | 0.5 (≈ 556 nM) | 0.002 (≈ 2.22 nM)
COC1C=COC2(C)Oc3c(C)c(O)c4c(=O)c(c5oc6cc(N7CCC(NC(C)=O)CC7)cc(O)c6nc-5c4c3C2=O)NC(=O)C(C)=CC=CC(C)C(O)C(C)C(O)C(C)C(OC(C)=O)C1C (stereo not shown) [Compound 44] | 0.06 (≈ 63.8 nM) | 2 (≈ 2130 nM) | >8 | 0.25 (≈ 266 nM) | 0.008 (≈ 8.5 nM)
COC1C=COC2(C)Oc3c(C)c(O)c4c(=O)c(c5oc6cc(N7CCC(NC(=O)SC)CC7)cc(O)c6nc-5c4c3C2=O)NC(=O)C(C)=CC=CC(C)C(O)C(C)C(O)C(C)C(OC(C)=O)C1C (stereo not shown) [Compound 45, 3′-hydroxy-5′-[4-S-methylthiocarbamyl-1-piperidinyl]benzoxazinorifamycin] | 0.015 (≈ 15.4 nM) | 4 (≈ 4110 nM) | 8 (≈ 8220 nM) | 0.5 (≈ 514 nM) | 0.001 (≈ 1.03 nM)
COC1C=COC2(C)Oc3c(C)c(O)c4c(=O)c(c5oc6cc(N7CC8CCCN(C(C)=O)C8C7)cc(O)c6nc-5c4c3C2=O)NC(=O)C(C)=CC=CC(C)C(O)C(C)C(O)C(C)C(O)C1C [Compound 46, 25-O-deacetyl-3′-hydroxy-5′-[1-acetyl-(4aR,7aR)-octahydro-6H-pyrrolo[3,4-b]pyridin-6-yl]benzoxazinorifamycin] | 0.004 (≈ 4.32 nM) | 2 (≈ 2160 nM) | >8 | 0.5 (≈ 541 nM) | 0.00006 (≈ 0.0649 nM)
COC1C=COC2(C)Oc3c(C)c(O)c4c(=O)c(c5oc6cc(N7CC8CCCN(C(C)=O)C8C7)cc(O)c6nc-5c4c3C2=O)NC(=O)C(C)=CC=CC(C)C(O)C(C)C(O)C(C)C(OC(C)=O)C1C [Compound 47, 3′-hydroxy-5′-[1-acetyl-(4aR,7aR)-octahydro-6H-pyrrolo[3,4-b]pyridin-6-yl]benzoxazinorifamycin] | 0.008 (≈ 8.27 nM) | 1 (≈ 1030 nM) | >8 | 0.25 (≈ 259 nM) | 0.002 (≈ 2.07 nM)
COC1C=COC2(C)Oc3c(C)c(O)c4c(=O)c(c5oc6cc(N7CCC(NC(=O)OC(C)(C)C)CC7)cc(O)c6nc-5c4c3C2=O)NC(=O)C(C)=CC=CC(C)C(O)C(C)C(O)C(C)C(OC(C)=O)C1C (stereo not shown) [Compound 48] | 0.008 (≈ 8.01 nM) | 2 (≈ 2000 nM) | >8 | 1 (≈ 1000 nM) | 0.00025 (≈ 0.25 nM)
COC1C=COC2(C)Oc3c(C)c(O)c4c(=O)c(c5oc6cc(N7CCC(NC(=O)N8CCC(NC(=O)SC)CC8)CC7)cc(O)c6nc-5c4c3C2=O)NC(=O)C(C)=CC=CC(C)C(O)C(C)C(O)C(C)C(OC(C)=O)C1C (stereo not shown) [Compound 49, 3′-hydroxy-5′-[4-(4-(S-methylthiocarbamyl)-1-piperidinylcarbonyl)amino-1-piperidinyl]benzoxazinorifamycin] | 0.06 (≈ 54.6 nM) | 8 (≈ 7280 nM) | >8 | 2 (≈ 1820 nM) | 0.0005 (≈ 0.455 nM)
COC1C=COC2(C)Oc3c(C)c(O)c4c(=O)c(c5oc6cc(N7CCC(NC(=O)N8CCN(C)CC8)CC7)cc(O)c6nc-5c4c3C2=O)NC(=O)C(C)=CC=CC(C)C(O)C(C)C(O)C(C)C(OC(C)=O)C1C (stereo not shown) [Compound 50, 3′-hydroxy-5′-[4-(4-methylpiperazinylcarbonyl)amino-1-piperidinyl]benzoxazinorifamycin] | 0.03 (≈ 29.3 nM) | 4 (≈ 3900 nM) | >8 | 0.5 (≈ 488 nM) | 0.00012 (≈ 0.117 nM)
CCOC(=O)NCC1CCN(c2cc(O)c3nc4c5c6c7c(C)c(O)c5c(=O)c(c-4oc3c2)NC(=O)C(C)=CC=CC(C)C(O)C(C)C(O)C(C)C(OC(C)=O)C(C)C(OC)C=COC(C)(O7)C6=O)CC1 (stereo not shown) [Compound 51] | 0.06 (≈ 60.9 nM) | 8 (≈ 8120 nM) | 8 (≈ 8120 nM) | 0.25 (≈ 254 nM) | 0.002 (≈ 2.03 nM)
COC1C=COC2(C)Oc3c(C)c(O)c4c(=O)c(c5oc6cc(N7CCC(NC(=O)OC(C)(C)C)CC7)cc(O)c6nc-5c4c3C2=O)NC(=O)C(C)=CC=CC(C)C(O)C(C)C(O)C(C)C(O)C1C (stereo not shown) [Compound 52, 25-O-deacetyl-3′-hydroxy-5′-[4-(2,2-dimethylethyl)carbamyl-1-piperidinyl]benzoxazinorifamycin] | 0.015 (≈ 15.7 nM) | 4 (≈ 4180 nM) | >8 | 0.12 (≈ 125 nM) | 0.00025 (≈ 0.261 nM)
COC1C=COC2(C)Oc3c(C)c(O)c4c(=O)c(c5oc6cc(N7CC8C(C7)C8N(C)C)cc(O)c6nc-5c4c3C2=O)NC(=O)C(C)=CC=CC(C)C(O)C(C)C(O)C(C)C(OC(C)=O)C1C [Compound 53, 3′-hydroxy-5′-[6-N,N-dimethylamino-(1R,5S)-3-azabicyclo[3.1.0]hex-3-yl]benzoxazinorifamycin] | 0.06 (≈ 64.9 nM) | 4 (≈ 4320 nM) | >8 | 2 (≈ 2160 nM) | 0.008 (≈ 8.65 nM)
COC1C=COC2(C)Oc3c(C)c(O)c4c(=O)c(c5oc6cc(N7CC8C(C7)C8N(C)C)cc(O)c6nc-5c4c3C2=O)NC(=O)C(C)=CC=CC(C)C(O)C(C)C(O)C(C)C(O)C1C [Compound 54, 3′-hydroxy-5′-[6-N,N-dimethylamino-(1R,5S)-3-azabicyclo[3.1.0]hex-3-yl]benzoxazinorifamycin] | 0.008 (≈ 9.06 nM) | 2 (≈ 2260 nM) | >8 | 0.25 (≈ 283 nM) | 0.0005 (≈ 0.566 nM)
COC1C=COC2(C)Oc3c(C)c(O)c4c(=O)c(c5oc6cc(N7CCC(CNC(C)=O)CC7)cc(O)c6nc-5c4c3C2=O)NC(=O)C(C)=CC=CC(C)C(O)C(C)C(O)C(C)C(OC(C)=O)C1C (stereo not shown) [Compound 55, 3′-hydroxy-5′-[4-acetylaminomethyl-1-piperidinyl]benzoxazinorifamycin] | 0.008 (≈ 8.38 nM) | 1 (≈ 1050 nM) | 8 (≈ 8380 nM) | 0.5 (≈ 524 nM) | 0.00025 (≈ 0.262 nM)
COC1C=COC2(C)Oc3c(C)c(O)c4c(=O)c(c5oc6cc(N7CCC(CNC(C)=O)CC7)cc(O)c6nc-5c4c3C2=O)NC(=O)C(C)=CC=CC(C)C(O)C(C)C(O)C(C)C(O)C1C (stereo not shown) [Compound 56, 25-O-deacetyl-3′-hydroxy-5′-[4-acetylaminomethyl-1-piperidinyl]benzoxazinorifamycin] | 0.004 (≈ 4.38 nM) | 0.12 (≈ 131 nM) | 8 (≈ 8760 nM) | 0.25 (≈ 274 nM) | 0.001 (≈ 1.1 nM)
